Here are results for 11 molecules from PMC12434521, “Characterization of Next-Generation Inhibitors for the Inward-Rectifier Potassium Channel Kir2.1: Discovery of VU6080824” (ACS Medicinal Chemistry Letters, 2025).

This data set can be described thus: Rat PK PBL cassette (i.v.). In kind it is in vivo, Sprague-Dawley rat. Conditions: for Kp (total brain to plasma ratio) / AUC / CLp / Elim. t1/2 / MRT / Vss / Kp at 0.25 h / clearance / half-life / Vd: male SD rat, 0.2 mg/kg i.v. cassette; for Kp (total brain to plasma ratio) / Kp at 0.25 h: 0.25 time point (15 min post dosing); for AUC / CLp / Elim. t1/2 / MRT / Vss / clearance / half-life / Vd: n = 1; for Kp at 0.25 h: brain and plasma, read-out: Kp (total brain to plasma ratio); for clearance: read-out: CLp; for half-life: read-out: Elim. t1/2 (converted); for Vd: read-out: Vss. The text has this: While ML133 has found use as a Kir2.1 tool molecule across many disease models, the in vivo PK of this and related compounds within the dibenzylamine chemotype have not previously been characterized. As a highly efficient method for profiling the PK of a compound set, we therefore examined ML133 (alongside 9 additional next-generation Kir2.1 inhibitors) in our rat PK PBL cassette dosing platform (Table ). − From this experimental setup, administration of a 4-compound bolus dose, plus a standard control, can be used to determine a variety of PK parameters in a high-throughput fashion. Specifically, Sprague–Dawley (SD) rats were given 0.2 mg/kg of each Kir2.1 inhibitor (i.v. dosing, 4 compounds +1 control, total dose 1 mg/kg) with PK measured across set time points up to 24 h. Additionally, a separate cohort of animals was utilized to assess total plasma-brain levels (PBL, ratio reported as Kp) of compound at a 0.25 time point. In this fashion, standard plasma-based PK parameters (elimination t 1/2, […] (MRT), plasma clearance (CLp), and volume of distribution (Vss)) were measured alongside a parallel assessment of total brain exposure.
PK PBL Cassette Experimental Conditions
4 compounds plus one control were formulated as a solution in ethanol, PEG400, and DMSO (1:3:6 v/v, respectively) at a concentration of 1 mg/mL and administered as a single IV dose (1 mL/kg, 0.2 mg/kg per compound, total 1 mg/kg) to male, Sprague Dawley rats (n = 1) via injection into a surgically -implanted jugular vein catheter. Blood samples were collected serially from a surgically implanted carotid artery catheter in each animal over multiple post -administration time points (0.033, 0.117, 0.25, 0.5, 1, 2, 4, 7, and 24 hours) into chilled, K 2EDTA anticoagulant - fortified tubes and immediately placed on wet ice. The blood samples were then centrifuged (1700 rcf, 5 minutes, 4 °C) to ob tain plasma samples, which were stored at -80 °C until analysis […]
For determination of the brain over plasma ratio (K p), the same cassette of compounds plus control were formulated in ethanol, PEG400, and DMSO (1:3:6 v/v, respectively) and administered as a single IV dose (1 mL/kg, 0.2 mg/kg per compound, total 1 mg/kg) to male, Sprague Dawley rats ( n = 1) via injection into a surgically-implanted jugular vein catheter. At 15 min post dosing, blood sample was collected terminally into chilled, K 2EDTA anticoagulant-fortified tube and immediately placed on wet ice. The bloo d sample was then centrifuged (1700 rcf, 5 minutes, 4 °C) to obtain plasma sample. At the same post-administration time point, whole brain sample was obtained by rapid dissection, rinsed with PBS, and immediately frozen in individual tissue collection box (dry ice). All brain and plasma samples were stored at -80 °C until […]
Samples preparation for bioanalysis
Plasma samples from the in-life phase of the study were thawed at ambient temperature (benchtop), and then aliquots (20 µL per sample) were transferred to a 96-shallow-well (V-bottom) plate. Matrix-matched quality control (QC) samples and a standard curve of each analyte (1 mg/mL DMSO stock solution) were prepared in blank rat plasma (K2EDTA-treated) via serial dilution and transferred (20 µL each) to the plate along with multiple blank plasma samples. MeCN (120 µL) containing IS (10 nM carbamazepine) was added to each well of the plate to precipitate protein. The plate was then centrifuged (4000 rcf, 5 minutes, ambient temperature), and resulting supernatants (60 µL each) were transferred to a new 96-shallow-well (V-bottom) plate containing an equal volume (60 µL per well) of water (Milli-Q purified). The plate was then sealed in preparation for LC-MS/MS analysis.
Preparation of brain samples was identical to that of plasma samples except for the following modifications. While thawing, brains were weighed (inside their collection boxes using a universal empty collection box tare weight) and then subjected to mechanical homogenization […]

Setting [1] is: Sprague-Dawley, plasma, iv, read-out: AUC.
Setting [2] is: Sprague-Dawley, plasma, iv, read-out: MRT.

Like-named read-outs stand apart in the source and are kept apart here.

Usually AUC stands for concentration integrated over time. The MRT is the average time that molecules of a dose stay in the body. As usually defined, the Vss is the apparent volume that relates the amount in the body to the concentration in plasma or blood. A lower Vss goes with little distribution into tissue. With `[2H]C([2H])([2H])Oc1ccc(CNCc2ccc(-c3cccc(OC)c3)cc2)cc1` [Compound 9], the “Kp (total brain to plasma ratio)” value turned out to be 2.15, the AUC is 131 ng·h/mL, the CLp was found to be 25.4 mL/min/kg and the “Elim. t1/2” value came to 1.56 h. This molecule also yielded a mean residence time (MRT) of 1.02 h and a distribution volume (Vss) of 1.55 L/kg.
Consider `[2H]C([2H])([2H])Oc1cccc(-c2ccc(CNCc3ccc(OC)cc3)cc2)c1` [Compound 11], for which the “Kp (total brain to plasma ratio)” value is recorded as 1.94, the AUC stood at 127 ng·h/mL, the CLp is 26.2 mL/min/kg and the “Elim. t1/2” value was found to be 1.54 h. This molecule also registered an MRT of 0.81 h and a Vss of 1.27 L/kg.
Consider `COc1ccc(CNCc2ccc(-c3ccccc3)cc2)cc1` [Compound 5k], for which the Kp at 0.25 h (Sprague-Dawley, iv) came out at 1.82. For the same molecule, the exposure (AUC) under setting [1] turned out to be 148 ng·h/mL. For the setting “Sprague-Dawley, plasma, iv”, the clearance turned out to be 22.6 mL/min/kg, the half-life was 1.68 h and the Vd was found to be 1.46 L/kg. Also, the MRT under setting [2] was determined as 1.08 h.
Consider `[2H]C([2H])([2H])Oc1ccc(CNCc2ccc(-c3cccc(OC([2H])([2H])[2H])c3)cc2)cc1` [Compound 13], for which the “Kp (total brain to plasma ratio)” value is on record as 2.06, the AUC turned out to be 126 ng·h/mL, the CLp is 26.4 mL/min/kg and the “Elim. t1/2” value worked out at 1.59 h. For the same molecule, the MRT is given as 1.00 h and the Vss is 1.58 L/kg.
On to `COc1ccc(CNCc2ccc(-c3cccc(OC)c3)cc2)cc1` [Compound 5s, 1-(3′-Methoxy-[1,1’-biphenyl]-4-yl)-N-(4-methoxybenzyl)methanamine], for which the Kp at 0.25 h (Sprague-Dawley, iv) worked out at 1.81. Moreover, under setting [1], the AUC turned out to be 189 ng·h/mL. In addition, under “Sprague-Dawley, plasma, iv”, the clearance came to 17.7 mL/min/kg, the half-life was 1.56 h and the Vd stood at 1.06 L/kg. Further, under setting [2], the MRT is 0.99 h.
For `[2H]C([2H])([2H])Oc1ccc(CNCc2cccc3ccccc23)cc1` [Compound 7], for the setting “Sprague-Dawley, iv”, the Kp at 0.25 h stood at 3.3. In addition, the AUC under setting [1] stood at 146 ng·h/mL. Besides, under “Sprague-Dawley, plasma, iv”, the clearance was determined as 22.8 mL/min/kg, the half-life was 1.39 h and the Vd was found to be 1.7 L/kg. Besides, the MRT under setting [2] is 1.24 h. Moreover, under “rat i.v. cassette”, the “Fold longer t1/2 compared to ML133” value is about 2 fold and the “Fold lower overall plasma clearance compared to ML133” value is about 1.4 fold.
Take `COc1ccc(CNCc2ccc(-c3cccc(F)c3)cc2)cc1` [Compound 5p]: under “Sprague-Dawley, iv”, the Kp at 0.25 h was 2.27. Moreover, the area under the curve (AUC) under setting [1] amounted to 109 ng·h/mL. Under “Sprague-Dawley, plasma, iv”, the clearance was 30.6 mL/min/kg, the half-life is 0.69 h and the Vd was 1.39 L/kg. Under setting [2], the mean residence time MRT was 0.76 h.
On to `COc1ccc(CNCc2cccc3ccccc23)cc1` [ML133, N-(4-methoxybenzyl)-1-(naphthalen-1-yl)methanamine, reference compound], for which the Kp at 0.25 h (Sprague-Dawley, iv) was 3.36. Besides, the area under the curve (AUC) under setting [1] turned out to be 104 ng·h/mL. For the setting “Sprague-Dawley, plasma, iv”, the clearance worked out at 31.9 mL/min/kg, the half-life is 0.75 h and the Vd worked out at 1.5 L/kg. The MRT under setting [2] is 0.78 h.
For the molecule `COc1ccc(CNCc2ccc3c(c2)OC(F)(F)O3)cc1` [Compound 5h], where the note is “Sprague-Dawley, iv”, the Kp at 0.25 h was found to be 2.13. Further, the exposure (AUC) under setting [1] was 110 ng·h/mL. Where the note is “Sprague-Dawley, plasma, iv”, the clearance was determined as 30.4 mL/min/kg, the half-life is 1.33 h and the Vd was found to be 1.58 L/kg. Moreover, under setting [2], the mean residence time MRT was determined as 0.87 h.
Consider `COc1ccc(CNCc2cccc(-c3ccccc3)c2)cc1` [Compound 5j], for which, under “Sprague-Dawley, iv”, the Kp at 0.25 h amounted to 4.23. The area under the curve (AUC) under setting [1] amounted to 105 ng·h/mL. Moreover, for the setting “Sprague-Dawley, plasma, iv”, the clearance was 31.7 mL/min/kg, the half-life is 1.18 h and the Vd came out at 1.9 L/kg. For the same molecule, under setting [2], the mean residence time MRT is 1 h.
Consider `COc1ccc(CNCc2ccc(-c3cccc(C#N)c3)cc2)cc1` [Compound 5t], for which, where the note is “Sprague-Dawley, iv”, the Kp at 0.25 h was 1.25. Under setting [1], the AUC came out at 165 ng·h/mL. Further, under “Sprague-Dawley, plasma, iv”, the clearance amounted to 20.2 mL/min/kg, the half-life is 1.66 h and the Vd was 1.2 L/kg. Moreover, the mean residence time (MRT) under setting [2] stood at 0.99 h.
